{"source": "patent US12162890B2", "about": "(Novartis AG, priority 2015, dated 2024)", "molecular_target": "HEK293 cells with stable expression of the GRIN1 gene and tetracycline-inducible expression of the GRIN2B gene (NMDA receptor, NR2B) (Homo sapiens, UniProt Q13224)", "sequence (Q13224 27-1484, other chains not shown)": "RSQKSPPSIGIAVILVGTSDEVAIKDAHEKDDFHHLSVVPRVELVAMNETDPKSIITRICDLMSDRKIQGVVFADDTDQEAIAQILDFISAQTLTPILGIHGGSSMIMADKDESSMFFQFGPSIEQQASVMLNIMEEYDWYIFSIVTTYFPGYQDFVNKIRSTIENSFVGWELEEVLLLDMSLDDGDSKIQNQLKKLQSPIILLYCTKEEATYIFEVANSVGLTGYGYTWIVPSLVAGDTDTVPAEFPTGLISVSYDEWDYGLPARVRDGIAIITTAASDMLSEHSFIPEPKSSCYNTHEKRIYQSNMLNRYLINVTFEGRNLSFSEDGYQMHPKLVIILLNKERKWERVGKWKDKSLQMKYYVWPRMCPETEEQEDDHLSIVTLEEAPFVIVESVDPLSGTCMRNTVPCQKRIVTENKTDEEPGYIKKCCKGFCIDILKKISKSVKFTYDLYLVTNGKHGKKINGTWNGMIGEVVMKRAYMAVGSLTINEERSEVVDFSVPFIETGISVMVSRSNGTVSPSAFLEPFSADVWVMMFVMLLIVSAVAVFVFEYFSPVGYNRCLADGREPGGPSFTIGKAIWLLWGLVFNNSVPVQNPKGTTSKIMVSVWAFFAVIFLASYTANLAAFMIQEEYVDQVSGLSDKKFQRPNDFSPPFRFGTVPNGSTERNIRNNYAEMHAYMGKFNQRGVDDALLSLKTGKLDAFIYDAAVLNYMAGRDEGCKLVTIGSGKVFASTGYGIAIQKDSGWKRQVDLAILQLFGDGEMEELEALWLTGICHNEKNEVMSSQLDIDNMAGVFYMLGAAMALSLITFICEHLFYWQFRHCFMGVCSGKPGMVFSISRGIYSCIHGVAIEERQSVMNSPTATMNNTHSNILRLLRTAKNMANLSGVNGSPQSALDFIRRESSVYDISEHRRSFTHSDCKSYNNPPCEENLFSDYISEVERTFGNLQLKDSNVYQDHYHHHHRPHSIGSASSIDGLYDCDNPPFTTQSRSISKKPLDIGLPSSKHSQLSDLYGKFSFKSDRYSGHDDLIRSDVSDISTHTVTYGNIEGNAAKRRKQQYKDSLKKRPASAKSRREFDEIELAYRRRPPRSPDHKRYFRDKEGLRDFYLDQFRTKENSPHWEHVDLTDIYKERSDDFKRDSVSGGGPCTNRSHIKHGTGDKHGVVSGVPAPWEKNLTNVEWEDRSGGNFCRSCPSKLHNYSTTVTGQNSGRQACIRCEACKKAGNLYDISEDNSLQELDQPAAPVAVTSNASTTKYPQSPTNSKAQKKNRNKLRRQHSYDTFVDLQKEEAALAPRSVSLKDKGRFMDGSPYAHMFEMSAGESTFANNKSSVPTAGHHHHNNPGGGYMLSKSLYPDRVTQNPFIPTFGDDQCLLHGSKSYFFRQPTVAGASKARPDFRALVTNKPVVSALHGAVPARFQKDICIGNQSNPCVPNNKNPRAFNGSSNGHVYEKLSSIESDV", "experiment": "Fluo-8 Ca2+ flux assay: reversal of Ro 25-6981-mediated suppression of the Ca2+ response to co-agonist (glutamate/glycine); further: test concentration or dose not given here", "assay_type": "cell-based", "conditions": "reversal of the Ro 25-6981 suppression of the Ca2+ response to co-agonist (glutamate/glycine)"}
{"smiles": "CC(C)(C)OC(=O)N1CCC12CN(C(=O)Cn1ccc3scc(-c4ccc(F)c(Cl)c4)c3c1=O)C2", "note": "[Example 79, tert-butyl 6-(2-(3-(3-chloro-4-fluorophenyl)-4-oxothieno[3,2-c]pyridin-5(4H)-yl)acetyl)-1,6-diazaspiro[3.3]heptane-1-carboxylate]", "values": [{"measurement": "Response Recovered (%)", "value": 18, "unit": "%"}]}
{"smiles": "O=C(Cn1ccc2scc(-c3ccc(Cl)c(Cl)c3)c2c1=O)N1CCC(F)C1", "note": "(stereo not drawn) [Example 10, 3-(3,4-dichlorophenyl)-5-(2-(3-fluoropyrrolidin-1-yl)-2-oxoethyl)thieno[3,2-c]pyridin-4(5H)-one]", "values": [{"measurement": "Response Recovered (%)", "value": 102, "unit": "%"}]}
{"smiles": "O=C(Cn1ncc2scc(-c3ccc(Cl)c(C(F)(F)F)c3)c2c1=O)N1CCCC1", "note": "[Example 335, 3-(4-chloro-3-(trifluoromethyl)phenyl)-5-(2-oxo-2-(pyrrolidin-1-yl)ethyl)thieno[2,3-d]pyridazin-4(5H)-one]", "values": [{"measurement": "Response Recovered (%)", "value": 23, "unit": "%"}]}
{"smiles": "O=C(Cn1ccc2[nH]cc(-c3ccc(F)c(Cl)c3)c2c1=O)N1CC(F)(F)C1", "note": "[Example 218, 3-(3-chloro-4-fluorophenyl)-5-(2-(3,3-difluoroazetidin-1-yl)-2-oxoethyl)-1H-pyrrolo[3,2-c]pyridin-4(5H)-one]", "values": [{"measurement": "Response Recovered (%)", "value": 71, "unit": "%"}]}
{"smiles": "CC1(F)CN(C(=O)Cn2ccn3ccc(-c4ccc(F)c(C(F)(F)F)c4)c3c2=O)C1", "note": "[Example 401, 8-(4-fluoro-3-(trifluoromethyl)phenyl)-2-(2-(3-fluoro-3-methylazetidin-1-yl)-2-oxoethyl)pyrrolo[1,2-a]pyrazin-1(2H)-one]", "values": [{"measurement": "Response Recovered (%)", "value": 160, "unit": "%"}]}
{"smiles": "O=C(Cn1ccn2ccc(-c3ccc(F)c(Cl)c3)c2c1=O)N1CC(F)(CF)C1", "note": "[Example 402, 8-(3-chloro-4-fluorophenyl)-2-(2-(3-fluoro-3-(fluoromethyl)azetidin-1-yl)-2-oxoethyl)pyrrolo[1,2-a]pyrazin-1(2H)-one]", "values": [{"measurement": "Response Recovered (%)", "value": 130, "unit": "%"}]}
{"smiles": "O=C(Cn1nnc2scc(-c3ccc(Cl)c(C(F)(F)F)c3)c2c1=O)N1CC(F)(F)C1", "note": "[Example 333, 5-(4-chloro-3-(trifluoromethyl)phenyl)-3-(2-(3,3-difluoroazetidin-1-yl)-2-oxoethyl)thieno[2,3-d][1,2,3]triazin-4(3H)-one]", "values": [{"measurement": "Response Recovered (%)", "value": 13, "unit": "%"}]}
{"smiles": "CCC1(F)CN(C(=O)Cn2ccc3scc(-c4cnc(C#N)c(Cl)c4)c3c2=O)C1", "note": "[Example 137, 3-chloro-5-(5-(2-(3-ethyl-3-fluoroazetidin-1-yl)-2-oxoethyl)-4-oxo-4,5-dihydrothieno[3,2-c]pyridin-3-yl)picolinonitrile]", "values": [{"measurement": "Response Recovered (%)", "value": 22, "unit": "%"}]}
{"smiles": "O=C(Cn1cc(-c2ccccc2)c2scc(-c3ccc(F)c(C(F)(F)F)c3)c2c1=O)N1CCCC1", "note": "[Example 104, 3-(4-fluoro-3-(trifluoromethyl)phenyl)-5-(2-oxo-2-(pyrrolidin-1-yl)ethyl)-7-phenylthieno[3,2-c]pyridin-4(5H)-one]", "values": [{"measurement": "Response Recovered (%)", "value": 22, "unit": "%"}]}
{"smiles": "CC1(NC(=O)OC(C)(C)C)CN(C(=O)Cn2ccc3scc(-c4ccc(F)c(C(F)(F)F)c4)c3c2=O)C1", "note": "[Example 77, tert-butyl (1-(2-(3-(4-fluoro-3-(trifluoromethyl)phen-yl)-4-oxothieno[3,2-c]pyridin-5(4H)-yl)acetyl)-3-methylazetidin-3-yl)carbamate]", "values": [{"measurement": "Response Recovered (%)", "value": "−6.4", "unit": "%"}]}
{"smiles": "CCOCn1cc(-c2ccc(F)c(C(F)(F)F)c2)c2c(=O)n(CC(=O)N3CCC(F)C3)ccc21", "note": "(stereo not drawn) [Example 241, 1-(ethoxymethyl)-3-(4-fluoro-3-(trifluoromethyl)phenyl)-5-(2-(3-fluoropyrrolidin-1-yl)-2-oxoethyl)-1H-pyrrolo[3,2-c]pyridin-4(5H)-one]", "values": [{"measurement": "Response Recovered (%)", "value": 61, "unit": "%"}]}
{"smiles": "Cn1cc(-n2cc(-c3ccc(F)c(Cl)c3)c3c(=O)n(CC(=O)N4CCC(F)C4)ccc32)nn1", "note": "(stereo not drawn) [Example 267, 3-(3-chloro-4-fluorophenyl)-5-(2-(3-fluoropyrrolidin-1-yl)-2-oxoethyl)-1-(1-methyl-1H-1,2,3-triazol-4-yl)-1H-pyrrolo[3,2-c]pyridin-4(5H)-one]", "values": [{"measurement": "Response Recovered (%)", "value": 27, "unit": "%"}]}
{"smiles": "CC1(F)CN(C(=O)Cn2ccc3c(c(-c4cnc(F)c(Cl)c4)cn3C3CC3)c2=O)C1", "note": "[Example 291, 3-(5-chloro-6-fluoropyridin-3-yl)-1-cyclopropyl-5-(2-(3-fluoro-3-methylazetidin-1-yl)-2-oxoethyl)-1H-pyrrolo[3,2-c]pyridin-4(5H)-one]", "values": [{"measurement": "Response Recovered (%)", "value": 80, "unit": "%"}]}
{"smiles": "O=C(Cn1ccn2c(C3CC3)nc(-c3ccc(F)c(Cl)c3)c2c1=O)N1CC(F)(CF)C1", "note": "[Example 439, 1-(3-chloro-4-fluorophenyl)-3-cyclopropyl-7-(2-(3-fluoro-3-(fluoromethyl)azetidin-1-yl)-2-oxoethyl)imidazo[1,5-a]pyrazin-8(7H)-one]", "values": [{"measurement": "Response Recovered (%)", "value": 120, "unit": "%"}]}
{"smiles": "O=C(Cn1ccn2ccc(-c3ccc(F)c(Cl)c3)c2c1=O)N1CC(F)(C2CC2)C1", "note": "[Example 398, 8-(3-chloro-4-fluorophenyl)-2-(2-(3-cyclopropyl-3-fluoroazetidin-1-yl)-2-oxoethyl)pyrrolo[1,2-a]pyrazin-1(2H)-one]", "values": [{"measurement": "Response Recovered (%)", "value": 43, "unit": "%"}]}
{"smiles": "O=C(Cn1ccc2ccc(-c3ccc(Cl)c(Cl)c3)cc2c1=O)N1CCCC1", "note": "[Example 316, 7-(3,4-dichlorophenyl)-2-(2-oxo-2-(pyrrolidin-1-yl)ethyl)isoquinolin-1(2H)-one]", "values": [{"measurement": "Response Recovered (%)", "value": 2, "unit": "%"}]}
{"smiles": "CC1(F)CN(C(=O)Cn2ccn3c(C4CC4)nc(-c4ccc(F)c(C(F)(F)F)c4)c3c2=O)C1", "note": "[Example 438, 3-cyclopropyl-1-(4-fluoro-3-(trifluoromethyl)phenyl)-7-(2-(3-fluoro-3-methylazetidin-1-yl)-2-oxoethyl)imidazo[1,5-a]pyrazin-8(7H)-one]", "values": [{"measurement": "Response Recovered (%)", "value": 79, "unit": "%"}]}
{"smiles": "Cn1cc(-n2cc(-c3ccc(F)c(C(F)(F)F)c3)c3c(=O)n(CC(=O)N4CCC(F)C4)ccc32)cn1", "note": "(stereo not drawn) [Example 234]", "values": [{"measurement": "Response Recovered (%)", "value": 80, "unit": "%"}]}
{"smiles": "O=C(Cn1ccc2scc(-c3ccc(Cl)c(Cl)c3)c2c1=O)N1CC(F)(CF)C1", "note": "[Example 82, 3-(3,4-dichlorophenyl)-5-(2-(3-fluoro-3-(fluoromethyl)azetidin-1-yl)-2-oxoethyl)thieno[3,2-c]pyridin-4(5H)-one]", "values": [{"measurement": "Response Recovered (%)", "value": 140, "unit": "%"}]}
{"smiles": "CCC1(F)CN(C(=O)Cn2ccc3scc(-c4ccc(F)c(C(F)(F)F)c4)c3c2=O)C1", "note": "[Example 51, 5-(2-(3-ethyl-3-fluoroazetidin-1-yl)-2-oxoethyl)-3-(4-fluoro-3-(trifluoromethyl)phen-yl)thieno[3,2-c]pyridin-4(5H)-one]", "values": [{"measurement": "Response Recovered (%)", "value": 57, "unit": "%"}]}
{"smiles": "O=C(Cn1ccc2c(c(-c3ccc(Cl)c(C(F)(F)F)c3)cn2-c2ccccn2)c1=O)N1CCC(F)C1", "note": "(stereo not drawn) [Example 224, 3-(4-chloro-3-(trifluoromethyl)phenyl)-5-(2-(3-fluoropyrrolidin-1-yl)-2-oxoethyl)-1-(pyridin-2-yl)-1H-pyrrolo[3,2-c]pyridin-4(5H)-one]", "values": [{"measurement": "Response Recovered (%)", "value": 109, "unit": "%"}]}
{"smiles": "O=C(Cn1ccn2ncc(-c3ccc(F)c(Cl)c3)c2c1=O)N1CC(F)(F)C1", "note": "[Example 328, 3-(3-chloro-4-fluorophenyl)-5-(2-(3,3-difluoroazetidin-1-yl)-2-oxoethyl)pyrazolo[1,5-a]pyrazin-4(5H)-one]", "values": [{"measurement": "Response Recovered (%)", "value": 29, "unit": "%"}]}
{"smiles": "O=C(Cn1ccc2scc(-c3cnc(Cl)c(C(F)(F)F)c3)c2c1=O)N1CC(F)C(F)C1", "note": "(stereo not drawn) [Example 36, 3-(6-chloro-5-(trifluoromethyl)pyri-din-3-yl)-5-(2-(3,4-difluoropyrrolidin-1-yl)-2-oxoethyl)thieno[3,2-c]pyridin-4(5H)-one]", "values": [{"measurement": "Response Recovered (%)", "value": 54, "unit": "%"}]}
{"smiles": "CC1CN(C(=O)Cn2ccc3scc(-c4ccc(Cl)c(Cl)c4)c3c2=O)C1", "note": "[Example 59, 3-(3,4-dichlorophenyl)-5-(2-(3-methylazetidin-1-yl)-2-oxoethyl)thieno[3,2-c]pyridin-4(5H)-one]", "values": [{"measurement": "Response Recovered (%)", "value": 110, "unit": "%"}]}
{"smiles": "O=C(Cn1cc(CO)c2scc(-c3ccc(F)c(C(F)(F)F)c3)c2c1=O)N1CCC(F)C1", "note": "(stereo not drawn) [Example 111, 3-(4-fluoro-3-(trifluoromethyl)phenyl)-5-(2-(3-fluoropyrrolidin-1-yl)-2-oxoethyl)-7-(hydroxymethyl)thieno[3,2-c]pyridin-4(5H)-one]", "values": [{"measurement": "Response Recovered (%)", "value": 97, "unit": "%"}]}
{"smiles": "O=C(Cn1nnc2scc(-c3ccc(Cl)c(C(F)(F)F)c3)c2c1=O)N1CCCC1", "note": "[Example 331, 5-[4-chloro-3-(trifluoromethyl)phenyl]-3-[2-oxo-2-(pyrrolidin-1-yl)ethyl]-3H,4H-thieno[2,3-d][1,2,3]triazin-4-one]", "values": [{"measurement": "Response Recovered (%)", "value": 8, "unit": "%"}]}
{"smiles": "Cc1nnc(-n2cc(-c3ccc(F)c(Cl)c3)c3c(=O)n(CC(=O)N4CCC(F)C4)ccc32)o1", "note": "(stereo not drawn) [Example 264, 3-(3-chloro-4-fluorophenyl)-5-(2-(3-fluoropyrrolidin-1-yl)-2-oxoethyl)-1-(5-methyl-1,3,4-oxadiazol-2-yl)-1H-pyrrolo[3,2-c]pyridin-4(5H)-one]", "values": [{"measurement": "Response Recovered (%)", "value": 49, "unit": "%"}]}
{"smiles": "O=C(Cn1cnc2[nH]cc(-c3ccc(Cl)cc3)c2c1=O)N1CCCC1C(F)(F)F", "note": "(stereo not drawn) [Example 152, 5-(4-chlorophenyl)-3-(2-oxo-2-(2-(trifluoromethyl)pyrrolidin-1-yl)ethyl)-3H-pyrrolo[2,3-d]pyrimidin-4(7H)-one]", "values": [{"measurement": "Response Recovered (%)", "value": 10, "unit": "%"}]}
{"smiles": "CC1(F)CN(C(=O)Cn2ccn3ccc(-c4cnc(Cl)c(Cl)c4)c3c2=O)C1", "note": "[Example 404, 8-(5,6-dichloropyridin-3-yl)-2-(2-(3-fluoro-3-methylazetidin-1-yl)-2-oxoethyl)pyrrolo[1,2-a]pyrazin-1(2H)-one]", "values": [{"measurement": "Response Recovered (%)", "value": 58, "unit": "%"}]}
{"smiles": "Cc1sc(-c2ccc(Cl)c(F)c2)c2c(=O)n(CC(=O)N3CCCC3)cnc12", "note": "[Example 369, 5-(4-chloro-3-fluorophenyl)-7-methyl-3-(2-oxo-2-(pyrrolidin-1-yl)ethyl)thieno[3,4-d]pyrimidin-4(3H)-one]", "values": [{"measurement": "Response Recovered (%)", "value": 33, "unit": "%"}]}
